The values below are quoted from earlier work in patent US20260256955A1, “LIQUID COMPOSITION OF COMPOUND I, PREPARATION METHOD THEREFOR, AND APPLICATION THEREOF” (BEIJING SINOTAU PHARMACEUTICAL TECHNOLOGY CO., LTD, priority 2022, published 2026).

For this data set the following is noted: animals.

Consider `CC(C)(C)n1ncc(OCc2cccc(Cn3cc(COCCOCC[18F])nn3)c2)c(Cl)c1=O` [Compound I, 2-tert-butyl-4-chloro-5-((3-((4-((2-(2-fluoro[^18F]ethoxy)ethoxy)methyl)-1H-1,2,3-triazol-1-yl)methyl)benzyl)oxy)pyridazin-3(2H)-one], for which, under “15 minutes post-injection”, the cardiac uptake entry is “high” and the liver uptake result is on record as “low”. Under “after 60 minutes”, the heart-to-liver ratio result is on record as “favorable”.
